Results on 2 molecules are retold here after ChEMBL document CHEMBL5032522, “N-2-(phenylamino) benzamide derivatives as novel anti-glioblastoma agents: Synthesis and biological evaluation” (Eur J Med Chem, 2021).

In data set [1] the target is T1, Prostaglandin G/H synthase 2 (Homo sapiens, UniProt P35354).
T1 sequence (P35354 whole entry): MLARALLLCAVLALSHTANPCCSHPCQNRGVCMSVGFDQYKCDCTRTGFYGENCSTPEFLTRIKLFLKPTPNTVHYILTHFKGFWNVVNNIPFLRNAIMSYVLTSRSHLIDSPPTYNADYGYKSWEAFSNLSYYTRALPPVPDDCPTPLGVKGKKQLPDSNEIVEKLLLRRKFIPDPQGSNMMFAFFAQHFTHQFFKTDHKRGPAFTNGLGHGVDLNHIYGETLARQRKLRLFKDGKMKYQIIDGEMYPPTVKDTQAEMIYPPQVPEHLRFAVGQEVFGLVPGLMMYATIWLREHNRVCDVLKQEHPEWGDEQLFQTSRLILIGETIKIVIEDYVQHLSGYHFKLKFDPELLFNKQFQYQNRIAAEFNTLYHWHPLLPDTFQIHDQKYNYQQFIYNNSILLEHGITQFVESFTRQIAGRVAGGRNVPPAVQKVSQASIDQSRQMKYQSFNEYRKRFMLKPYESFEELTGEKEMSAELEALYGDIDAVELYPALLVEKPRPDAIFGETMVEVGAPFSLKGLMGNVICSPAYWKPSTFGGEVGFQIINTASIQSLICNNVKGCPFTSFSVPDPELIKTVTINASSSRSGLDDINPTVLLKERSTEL
Nature of the data set: Inhibition of human recombinant COX-2 using arachidonic acid as substrate preincubated 10 mins followed by substrate addition and measured after 2 mins by ELISA. Background: In an ELISA, binding on a coated surface is turned into a signal by an enzyme label.

The subject of data set [2] is U-87 MG. Description: Antitumor activity against human U-87 MG cells xenografted in BALB/c nude mouse assessed as tumor growth inhibition at 20 mg/kg, ip bid measured every 3 days for 25 days relative to control. It counts as functional, U-87MG ATCC. The note with it: 600 h, time 25 day, read-out: TGI. (In xenograft studies the graft and the host belong to different species.)

For data set [3], the system named is U-87 MG. Description: Induction of morphological changes in human U-87 MG cells assessed as appearance of spindle cell shape at 3.3 uM incubated for 72 hrs by Giemsa staining based light microscopic method. It counts as functional. The note with it: U-87MG ATCC.
The species entered for data set [4] is Rattus norvegicus. Description: Upregulation of E-cadherin protein expression in Sprague-Dawley rat orthotopic model inoculated with C6 cells by Western blot analysis. The data set is classed as functional. (A western blot detects proteins with antibodies after separation by electrophoresis.)
Data set [5] has as its system C6. Description: Antitumor activity against rat C6 cells inoculated orthotopic Sprague-Dawley rat model assessed as reduction in tumor weight at 100 mg/kg, ip bid administered for 14 days by MRI scanner. The data set is classed as functional, organism-based. The note with it: time 14.0 day.
Data set [6] deals with C6. Nature of the data set: Antiproliferative activity against rat C6 cells assessed as inhibition of cell growth measured after 72 hrs by CCK-8 assay. The data set is classed as functional, cell-based. The note with it: C6, 72 h.
Data set [7] concerns C6. Description: Antitumor activity against rat C6 cells inoculated orthotopic Sprague-Dawley rat model assessed as reduction in tumor volume at 100 mg/kg, ip bid administered for 14 days. It counts as functional, organism-based. The note with it: time 14.0 day.
Data set [8] deals with U-87 MG. Nature of the data set: Induction of cell cycle arrest in human U-87 MG assessed as decrease in G0/G1 phase accumulation at 10 uM incubated for 72 hrs by propidium iodide/RNase A staining based flow cytometry. The data set is classed as functional. The note with it: U-87MG ATCC.
A short description of data set [9]: Toxicity in BALB/c mouse xenografted with human U-87 MG cells assessed as reduction in body weight at 20 mg/kg, ip bid measured after 25 days. It counts as organism-based. The note with it: in vivo, 600 h, time 25 day.
The species entered for data set [10] is Rattus norvegicus. Description: Downregulation of MMP-9 protein expression in Sprague-Dawley rat orthotopic model inoculated with C6 cells by Western blot analysis. It counts as functional.
Data set [11] relates to U-251. Nature of the data set: Inhibition of colony formation in human U-251 cells measured after 8 days by crystal violet staining based assay. The data set is classed as functional, cell-based. Conditions: time 8.0 day.
A short description of data set [12]: Drug concentration in Sprague-Dawley rat brain at 100 mg/kg, ip measured 6 hrs post administration by LC-MS analysis. The data set is classed as ADME, organism-based. The note with it: read-out: Ct.
Data set [13] in a line: Half life in Sprague-Dawley rat at 100 mg/kg, ip measured up to 24 hrs by LC-MS analysis. Conditions: in vivo. The data set is classed as ADME, organism-based.
Data set [14] relates to Rattus norvegicus. Description: In vivo inhibition of STAT3 activation in ip dosed orthotopic Sprague-Dawley rat model inoculated with C6 cells assessed as decrease in p-STAT3 in tumor tissue by Western blot analysis. The data set is classed as functional, organism-based.
Data set [15] is described as follows: Acute toxicity in Kunming mouse assessed as death at 300 mg/kg, ip administered as single dose observed every day for 14 days. It counts as organism-based. The note with it: in vivo, 336 h, time 14 day.
Data set [16] deals with U-251. Description: Antiproliferative activity against human U-251 cells assessed as cell survival at <= 1.1 uM measured after 24 hrs by CCK-8 assay. It counts as functional. Conditions: dose microM <=1.1.
Data set [17] has as its system U-87 MG. Nature of the data set: Inhibition of cell migration in human U-87 MG cells incubated for 24 hrs by crystal violet staining based light microscopic analysis. The data set is classed as functional. The note with it: U-87MG ATCC.
Data set [18] has as its system U-87 MG. Description: Antitumor activity against human U-87 MG cells xenografted in BALB/c nude mouse assessed as reduction in tumor weight at 20 mg/kg, ip bid measured every 3 days for 25 days. Conditions: U-87MG ATCC, time 25.0 day. It counts as functional, organism-based.
The test system of data set [19] is U-87 MG. Nature of the data set: Antitumor activity against human U-87 MG cells xenografted in BALB/c nude mouse assessed as reduction in Ki67 expression in tumor at 20 mg/kg, ip bid measured every 3 days for 25 days by immunohistochemical analysis. It counts as functional, organism-based. The note with it: U-87MG ATCC, time 25.0 day.
The nature of data set [20]: Drug concentration in Sprague-Dawley rat plasma at 100 mg/kg, ip measured 6 hrs post administration by LC-MS analysis. The data set is classed as ADME, organism-based.

Usually IC50 stands for the concentration at which inhibition is half-maximal. Usually half-life stands for how long it takes for the measured level to halve.

Calls of active or inactive are those of the source. No cut-off for these calls is given here. Bounds are passed on as bounds.

On to `COc1ccc(NC(=O)c2ccccc2Nc2cccc(Cl)c2C)cc1`, for which the IC50 in data set [1] was 33.6 µM; with C6 [6], 10.1 µM. Further, the inhibition in vivo at 20 mg/kg with U-87 MG [2] was determined as 69.4%. For the same molecule, the result with U-87 MG [3], in the data set listed under Rattus norvegicus [4], with C6 [5], with C6 [7], in the data set on U-87 MG [8] and in the data set listed under Rattus norvegicus [10] was Active. Also, the result with U-87 MG [18] and in the data set with U-87 MG [19] was Active. Besides, the Activity entry in data set [9] and in data set [15] was “Non-Toxic” each time. Besides, the inhibition entry with U-251 [11] and in the data set with U-87 MG [17] was “Dose-Dependent Effect” each time. Besides, the concentration at 6 h in [12] is 3380 ng/mL; in data set [20] it was 5790 ng/mL. Moreover, in [13], the half-life is 402 min. The inhibition result in the data set on Rattus norvegicus [14] was “Active”. For the same molecule, in the data set with U-251 [16], the Survival is given as above 80%.

As to `Cc1c(Cl)cccc1Nc1ccccc1C(=O)Nc1ccc2c(c1)OCO2`, the IC50 in data set [1] came out at 45 µM; in the data set on C6 [6], 16.9 µM. In addition, the outcome in the data set with U-87 MG [3], in the data set with C6 [5], in the data set on C6 [7] and in the data set on U-87 MG [8] was Active. The inhibition result in the data set on U-251 [11] and in the data set on U-87 MG [17] was “Dose-Dependent Effect” in each case. The concentration at 6 h came to 1410 ng/mL in data set [12] and 4990 ng/mL in data set [20]. In addition, in data set [13], the half-life was 502 min. Further, in the data set on U-251 [16], the Survival is on record as above 80%.
